Where a name gives a salt, the structure may show the parent alone.
target: PDE4D7 (Homo sapiens (Human), UniProt Q08499); conditions: not given
Sequence (Q08499 other isoform, or with tags, fused parts or gaps): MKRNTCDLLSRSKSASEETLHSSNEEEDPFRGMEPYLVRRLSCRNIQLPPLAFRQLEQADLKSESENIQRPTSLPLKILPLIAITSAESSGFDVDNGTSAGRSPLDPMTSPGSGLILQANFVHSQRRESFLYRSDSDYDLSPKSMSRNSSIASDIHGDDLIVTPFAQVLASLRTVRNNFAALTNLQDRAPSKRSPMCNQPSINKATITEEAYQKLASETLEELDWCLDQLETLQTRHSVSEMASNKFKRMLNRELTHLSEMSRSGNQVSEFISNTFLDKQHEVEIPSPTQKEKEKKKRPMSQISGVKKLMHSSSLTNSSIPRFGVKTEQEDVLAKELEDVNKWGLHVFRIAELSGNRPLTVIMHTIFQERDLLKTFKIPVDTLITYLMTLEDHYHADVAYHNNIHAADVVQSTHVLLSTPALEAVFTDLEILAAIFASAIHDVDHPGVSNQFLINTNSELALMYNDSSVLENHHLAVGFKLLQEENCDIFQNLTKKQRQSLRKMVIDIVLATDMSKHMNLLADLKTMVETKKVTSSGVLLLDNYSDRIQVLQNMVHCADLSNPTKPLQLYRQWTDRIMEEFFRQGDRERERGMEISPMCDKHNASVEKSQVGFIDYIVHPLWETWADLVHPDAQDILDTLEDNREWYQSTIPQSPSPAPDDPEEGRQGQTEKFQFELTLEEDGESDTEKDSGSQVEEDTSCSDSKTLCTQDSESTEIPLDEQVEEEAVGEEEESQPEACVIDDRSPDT

IC50 | Structure (SMILES)
> 1000 nM | CCCNC(=O)Cc1ccc(Cc2cc(CC)nc(-c3cccc(Cl)c3)n2)cc1 [Example 193, 2-(4-((2-(3-Chlorophenyl)-6-ethylpyrimidin-4-yl)methyl)phenyl)-N-propylacetamide]

same assay, conditions: read-out: PDE4D7 IC50

Structure (SMILES) | IC50
CCc1cc(Oc2ccc(CC(N)=O)cc2)nc(-c2cccc(Cl)c2)n1 [Example 181, 2-(4-((2-(3-Chlorophenyl)-6-ethylpyrimidin-4-yl)oxy)phenyl)acetamide] | > 1000 nM
CCc1cc(Oc2ccc(CCO)cc2)nc(-c2cccc(Cl)c2)n1 [Example 182, 2-(4-((2-(3-Chlorophenyl)-6-ethylpyrimidin-4-yl)oxy)phenyl)ethanol] | < 1000 nM
CCc1cc(Nc2ccc(CCO)cc2)nc(-c2cccc(Cl)c2)n1 [Example 191, 2-(4-((2-(3-chlorophenyl)-6-ethylpyrimidin-4-yl)amino)phenyl)ethanol] | < 1000 nM

same assay, conditions: read-out: PDE4D7 IC50; PDE4D7 without asterisk

Structure (SMILES) | IC50
OCCCc1ccc(Nc2nc(-c3cccc(Cl)c3)nc3c2CCC3)cc1 [Example 163, 3-(4-((2-(3-Chlorophenyl)-6,7-dihydro-5H-cyclopenta[d]pyrimidin-4-yl)amino)phenyl)propan-1-ol] | < 1000 nM
CC(=O)Cc1ccc(Nc2nc(-c3cccc(Cl)c3)nc3c2CCC3)cc1 [Example 164, 1-(4-((2-(3-Chlorophenyl)-6,7-dihydro-5H-cyclopenta[d]pyrimidin-4-yl)amino)phenyl)propan-2-one] | > 1000 nM
CC(O)Cc1ccc(Nc2nc(-c3cccc(Cl)c3)nc3c2CCC3)cc1 (stereo not shown) [Example 165, 1-(4-((2-(3-Chlorophenyl)-6,7-dihydro-5H-cyclopenta[d]pyrimidin-4-yl)amino)phenyl)propan-2-ol] | > 1000 nM
CCc1cc(Nc2ccc(CC(N)=O)cc2)nc(-c2cccc(Cl)c2)n1 [Example 171, 2-(4-((2-(3-Chlorophenyl)-6-ethylpyrimidin-4-yl)amino)phenyl)acetamide] | < 1000 nM
C[C@H](O)Cc1ccc(Nc2nc(-c3cccc(Cl)c3)nc3c2CCC3)cc1 [Example 173, (S)-1-(4-((2-(3-Chlorophenyl)-6,7-dihydro-5H-cyclopenta[d]pyrimidin-4-yl)amino)phenyl)propan-2-ol] | > 1000 nM
C=Cc1ccc(Nc2nc(-c3cccc(Cl)c3)nc3c2CCC3)cc1 [Example 174, 2-(3-Chlorophenyl)-N-(4-vinylphenyl)-6,7-dihydro-5H-cyclopenta[d]pyrimidin-4-amine] | > 1000 nM
OC(Cc1ccc(Nc2nc(-c3cccc(Cl)c3)nc3c2CCC3)cc1)C(F)(F)F (stereo not shown) [Example 176, 3-(4-((2-(3-Chlorophenyl)-6,7-dihydro-5H-cyclopenta[d]pyrimidin-4-yl)amino)phenyl)-1,1,1-trifluoropropan-2-ol] | > 1000 nM
NC(=O)CCCNc1nc(-c2cccc(Cl)c2)nc2c1CCC2 [Example 178, 4-((2-(3-Chlorophenyl)-6,7-dihydro-5H-cyclopenta[d]pyrimidin-4-yl)amino)butanamide] | > 1000 nM
Clc1cccc(-c2nc3c(c(Nc4ccc(Cc5ncco5)cc4)n2)CCC3)c1 [Example 179, 2-(3-Chlorophenyl)-N-(4-(oxazol-2-ylmethyl)phenyl)-6,7-dihydro-5H-cyclopenta[d]pyrimidin-4-amine] | > 1000 nM
CCc1cc(Oc2ccc(CC(N)=O)cn2)nc(-c2cccc(Cl)c2)n1 [Example 183, 2-(6-((2-(3-Chlorophenyl)-6-ethylpyrimidin-4-yl)oxy)pyridin-3-yl)acetamide] | > 1000 nM
CCc1cc(Nc2ccc(C(C)(C)C(N)=O)cc2)nc(-c2cccc(Cl)c2)n1 [Example 187, 2-(4-((2-(3-Chlorophenyl)-6-ethylpyrimidin-4-yl)amino)phenyl)-2-methylpropanamide] | > 1000 nM
CCc1cc(Nc2ccc(Cn3cc(Cl)cn3)cc2)nc(-c2cccc(Cl)c2)n1 [Example 188, N-(4-((4-Chloro-1H-pyrazol-1-yl)methyl)phenyl)-2-(3-chlorophenyl)-6-ethylpyrimidin-4-amine] | > 1000 nM
CCc1cc(Nc2ccc(Cn3cccn3)cc2)nc(-c2cccc(Cl)c2)n1 [Example 189, N-(4-((1H-Pyrazol-1-yl)methyl)phenyl)-2-(3-chlorophenyl)-6-ethylpyrimidin-4-amine] | < 1000 nM
CCCN(C)C(=O)Cc1ccc(Cc2cc(CC)nc(-c3cccc(Cl)c3)n2)cc1 [Example 194, 2-(4-((2-(3-Chlorophenyl)-6-ethylpyrimidin-4-yl)methyl)phenyl)-N-methyl-N-propylacetamide] | < 1000 nM
CCc1cc(Cc2ccc(CC(=O)NCCO)cc2)nc(-c2cccc(Cl)c2)n1 [Example 195, 2-(4-((2-(3-chlorophenyl)-6-ethylpyrimidin-4-yl)methyl)phenyl)-N-(2-hydroxyethyl)acetamide] | < 1000 nM
CCc1cc(Cc2ccc(C(C)(C)CO)cc2)nc(-c2cccc(Cl)c2)n1 [Example 197, 2-(4-((2-(3-Chlorophenyl)-6-ethylpyrimidin-4-yl)methyl)phenyl)-2-methylpropan-1-ol] | > 1000 nM
NC(=O)Cc1ccc(Nc2cc(C(F)(F)F)nc(OC3CCCC3)n2)cc1 [Example 198, 2-(4-((2-(Cyclopentyloxy)-6-(trifluoromethyl)pyrimidin-4-yl)amino)phenyl)acetamide] | > 1000 nM

Second part, the compound after the results:

IC50 | Structure (SMILES)
> 1000 nM | Cc1cccc(-c2cc(Nc3ccc(CCO)cc3)c3c(n2)CCC3)c1 [Example 160, 2-(4-((2-(m-Tolyl)-6,7-dihydro-5H-cyclopenta[b]pyridin-4-yl)amino)phenyl)ethanol hydrochloride]
> 1000 nM | O=C(O)Cc1ccc(Nc2cc(C3CCCC3)nc(C(F)(F)F)c2)cc1 [Example 161, 2-(4-((2-Cyclopentyl-6-(trifluoromethyl)pyridin-4-yl)amino)phenyl)acetic acid]
< 1000 nM | OCCc1ccc(Nc2nc(-c3cccc(Cl)c3)nc3c2CCC3)cc1 [Example 162, 2-(4-((2-(3-Chlorophenyl)-6,7-dihydro-5H-cyclopenta[d]pyrimidin-4-yl)amino)phenyl)ethanol]
> 1000 nM | Clc1cccc(-c2nc3c(c(Nc4ccccc4)n2)CCC3)c1 [Example 166, 2-(3-Chlorophenyl)-N-phenyl-6,7-dihydro-5H-cyclopenta[d]pyrimidin-4-amine]
> 1000 nM | NC(=O)CCc1ccc(Nc2nc(-c3cccc(Cl)c3)nc3c2CCC3)cc1 [Example 167, 3-(4-((2-(3-Chlorophenyl)-6,7-dihydro-5H-cyclopenta[d]pyrimidin-4-yl)amino)phenyl)propanamide]
> 1000 nM | NC(=O)C(CO)Cc1ccc(Nc2nc(-c3cccc(Cl)c3)nc3c2CCC3)cc1 (stereo not shown) [Example 168, 2-(4-((2-(3-Chlorophenyl)-6,7-dihydro-5H-cyclopenta[d]pyrimidin-4-yl)amino)benzyl)-3-hydroxypropanamide]
> 1000 nM | CN(C)CCc1ccc(Nc2nc(-c3cccc(Cl)c3)nc3c2CCC3)cc1 [Example 169, 2-(3-Chlorophenyl)-N-(4-(2-(dimethylamino)ethyl)phenyl)-6,7-dihydro-5H-cyclopenta[d]pyrimidin-4-amine hydrochloride]
> 1000 nM | CCc1cc(Nc2ccc(CCN(C)C)cc2)nc(-c2cccc(Cl)c2)n1 [Example 170, 2-(3-Chlorophenyl)-N-(4-(2-(dimethylamino)ethyl)phenyl)-6-ethylpyrimidin-4-amine hydrochloride]
> 1000 nM | C[C@@H](O)Cc1ccc(Nc2nc(-c3cccc(Cl)c3)nc3c2CCC3)cc1 [Example 172, (R)-1-(4-((2-(3-Chlorophenyl)-6,7-dihydro-5H-cyclopenta[d]pyrimidin-4-yl)amino)phenyl)propan-2-ol]
> 1000 nM | OCC(O)c1ccc(Nc2nc(-c3cccc(Cl)c3)nc3c2CCC3)cc1 (stereo not shown) [Example 175, 1-(4-((2-(3-Chlorophenyl)-6,7-dihydro-5H-cyclopenta[d]pyrimidin-4-yl)amino)phenyl)ethane-1,2-diol]
> 1000 nM | Cc1cc(Nc2nc(-c3cccc(Cl)c3)nc3c2CCC3)ccc1CC#N [Example 177, 2-(4-((2-(3-Chlorophenyl)-6,7-dihydro-5H-cyclopenta[d]pyrimidin-4-yl)amino)-2-methylphenyl)acetonitrile]
> 1000 nM | NS(=O)(=O)Cc1ccc(Nc2nc(-c3cccc(Cl)c3)nc3c2CCC3)cc1 [Example 180, (4-((2-(3-Chlorophenyl)-6,7-dihydro-5H-cyclopenta[d]pyrimidin-4-yl)amino)phenyl)methanesulfonamide]
> 1000 nM | CCc1cc(Nc2ccc(C(C)(C)CO)cc2)nc(-c2cccc(Cl)c2)n1 [Example 184, 2-(4-((2-(3-Chlorophenyl)-6-ethylpyrimidin-4-yl)amino)phenyl)-2-methylpropan-1-ol]
> 1000 nM | CCOC(=O)Cc1ccc(Nc2cc(CC)nc(-c3cccc(Cl)c3)n2)cc1 [Example 185, Ethyl 2-(4-((2-(3-chlorophenyl)-6-ethylpyrimidin-4-yl)amino)phenyl)acetate]
> 1000 nM | CCc1cc(Nc2ccc(C(CO)C(F)(F)F)cc2)nc(-c2cccc(Cl)c2)n1 (stereo not shown) [Example 186, 2-(4-((2-(3-Chlorophenyl)-6-ethylpyrimidin-4-yl)amino)phenyl)-3,3,3-trifluoropropan-1-ol]
< 1000 nM | CCc1cc(Cc2ccc(Cn3cc(Cl)cn3)cc2)nc(-c2cccc(Cl)c2)n1 [Example 190, 4-(4-((4-Chloro-1H-pyrazol-1-yl)methyl)benzyl)-2-(3-chlorophenyl)-6-ethylpyrimidine]
> 1000 nM | CCc1cc(/N=c2\[nH]cc(CC(N)=O)o2)nc(-c2cccc(Cl)c2)n1 [Example 192, 2-(2-((2-(3-Chlorophenyl)-6-ethylpyrimidin-4-yl)imino)-2,3-dihydrooxazol-5-yl)acetamide]
> 1000 nM | CCc1cc(Cc2ccc(C(C)(C)C(N)=O)cc2)nc(-c2cccc(Cl)c2)n1 [Example 196, 2-(4-((2-(3-Chlorophenyl)-6-ethylpyrimidin-4-yl)methyl)phenyl)-2-methylpropanamide]
< 1000 nM | OCCc1ccc(Nc2cc(C(F)(F)F)nc(OC3CCCC3)n2)cc1 [Example 199, 2-(4-((2-(Cyclopentyloxy)-6-(trifluoromethyl)pyrimidin-4-yl)amino)phenyl)ethanol]

Reference: US11401286B2 (Tetra Discovery Partners, LLC, priority 2012, dated 2022)
